# Results taken from US6808884B2, “Methods and compositions for detecting polynucleotide duplex damage and errors” (California Institute of Technology, priority 2000, dated 2004).
# Key:
# [1] = system: DNA duplexes (SEQ ID NO:1 / SEQ ID NO:2) having base-pair mismatches; experiment: Photocleavage of 17mer DNA duplexes with varied X-Y base pair, 365 nm irradiation, PAGE analysis; assay type: biochemical; settings: duplex 10 μM, complex 1 μM, pH 7.0, 13 min at 365 nm
# Experimental: A set of DNA duplexes was prepared having the following sequence: 3′-[…]-5′(SEQ ID NO:1)
# 5′-[…]-3′(SEQ ID NO:2),
# where X and Y were varied to provide A-T, G-C, and the following mismatches: C-C, C-A, T-T, A-A, T-C, T-G, G-A, and G-G. All oligonucleotides were prepared using standard phosphoramidite chemistry, and were purified by reverse phase HPLC. The oligonucleotides were 5′ end-labeled with γ-^32P ATP (Dupont-NEN) and T4 polynucleotide kinase (New England Biolabs).
# Duplexes (10 μM) were incubated with Δ or Λ [Rh(bpy)2 (chrysi)]^3+(1 μM in 50 mM Tris, 20 mM NaOAc, 18 mM NaCl, pH 7.0) for 11 minutes, then irradiated for 13 min at 365 nm using an Oriel HgXe arc lamp. The products were analyzed by PAGE (20%, denaturing), imaged using a Molecular Dynamics Phosphorimager. […] Here, cleavage occurred to the 3′ side of the mismatch site. […] Unlike the other recognized mismatches, the cleavage 3′ to C-A results in two products having different gel mobility, possibly the result of chemically different polymer termini. The cleavage of A-A was also distinctive.
# [2] = system: DNA duplexes with mismatch-sequence context combinations; experiment: DNA photocleavage with bases 5′ and 3′ of the mismatch site systematically changed; assay type: biochemical; settings: flanking bases 5′ and 3′ of the mismatch systematically changed
Substance,"mismatch pairs cleaved among C-C, C-A, T-T, A-A, T-C, T-G, G-A, G-G [1]","photocleavage at A-A mismatch, relative to the other enantiomer [1]","photocleavage at A-A mismatch, at the A-A site itself [1]","photocleavage at A-A mismatch, base 3′ to the site [1]",photocleavage at C-A mismatch ([1]; at the mismatched C and the neighbouring base 3′),photocleavage intensity at C-C mismatch ([1]; cleavage 3′ of the mismatch site),photocleavage intensity at T-C mismatch ([1]; compared with C-C),photocleavage intensity at T-T mismatch ([1]; compared with C-C),mismatch-sequence context combinations at which photocleavage was observed (count) [2],mismatch-sequence context combinations at which photocleavage was observed (share) [2] [%]
Λ[Rh(bpy)2 (chrysi)]Cl3 [Λ enantiomer],A-A mismatch is the only pair cleaved,weaker cleavage than the Δ enantiomer,,,,,,,,
Δ-[Rh(bpy)2 (chrysi)]Cl3 [Δ-[Rh(bpy)2 (chrysi)]^3+],,,small amount of cleavage,strong cleavage,Strong cutting,strongest cleavage intensity,less intense cleavage,less intense cleavage,83 of 104,80
